# Results reported in patent publication US20150337276A1, “ENZYME HAVING A NMDA RECEPTOR ANTAGONIST ACTIVITY AND/OR AN ANTICHOLINERGIC ACTIVITY” (priority 2012, published 2015).
# Key:
# [1] = test system: cortical neurons; assay: Neurite network density (NF-H labeling) of cortical neurons under basal conditions, potential neurotoxic effect; details: enzymes 2.5 μM for 30 hours, glutamate 100 μM for 6 hours
# [2] = test system: glutamate intoxicated-cortical neurons; assay: Neurite network density (NF-H labeling) of glutamate-intoxicated cortical neurons, neuroprotective effect; format: cell-based, rat; details: intoxicated conditions (glutamate 100 μM, 6 hours)
# Experimental: Culture conditions: 37° C., 5% CO2
# At DIV9, the reference MK-801 (10 μM) was pre-incubated for 30 minutes before glutamate intoxication. Cortical neurons were then incubated for 6 hours with 100 μM of glutamate in presence or not (intoxicated control) of test compounds, the solvent control or the reference. A control without glutamate (non-intoxicated control) was performed in parallel. All experimental conditions were performed in n=3.
# All the images were taken under the same conditions.
# Raw data were analyzed with Microsoft Excel® software.
# [3] = test system: NMDA receptor; assay: NMDA current recording by patch clamp (whole cell, voltage clamp -30 mV) in dorsal root ganglia nociceptor neurons; format: cell-based, rat; details: for Percentage inhibition of NMDA current: NMDA 250 μM, holding potential -30 mV
# Experimental: In one embodiment, the NMDA antagonist activity of the enzyme of the invention is measured by electrophysiology, as shown in Example 3. In one embodiment, said measurement is performed on dorsal root ganglion nociceptor neurons of rats.
# The culture conditions of dorsal root ganglia neurons of rats were adapted from Hao and Delmas (J Neurosci. 2010, 6; 30(40)).
# NMDA current recordings are performed in neurons of small and medium diameter (nociceptors). Neurons are identified visually and electrophysiologically by measuring their membrane capacitance. […] These neurons express the NMDA receptor in the dorsal root ganglia. Nociceptors are specifically identified by the presence of TTX-resistant Nav1.8 sodium current. Each neuron is tested for the presence upstream of Nav1.8.
# NMDA currents are low amplitude currents. Thus, electrical leakage is carefully checked during recording. Infusion or injection of products was performed close to neurons to avoid changes in concentration (dilution effect). Media infusion was extemporaneously daily handled. Products OPN-001 were diluted from stock solutions and stored at 4° C. The data were collected using an Axopatch amplifier 200-B, the Clampex software (PClamp V10, Molecular Device) and stored and analyzed using Clampfit.
smiles,measurement,setting,value
N[C@@H](CCC(=O)O)C(=O)O [Glutamate],Mean NF-H-positive neurite surface,"[1]; basal conditions (no glutamate), n=3",21503 μm^2
same,Intoxication (%),"[1]; basal conditions, normalized to control",34%
C[C@]12N[C@H](Cc3ccccc31)c1ccccc12 [MK801],Mean NF-H-positive neurite surface,"[2]; enzymes 2.5 μM pre-incubated 24 hours, MK801 10 μM pre-incubated 30 minutes, n=3",32319 μm^2
same,Protection (%),"[2]; enzymes 2.5 μM, MK801 10 μM",~96%
[Cl-].[Cl-].[Zn+2] [ZnCl2],"efficiency in inhibiting NMDA current, in words","[3]; 5 nM, alone",not efficient
same,"time for the blocking effect on NMDA current to occur, in words",[3]; 50 nM and 500 nM,within seconds
same,"inhibition of the NMDA current, trace (FIG. 1B), in words","[3]; 50 nM, 200 μl applied alone, NMDA 250 μM for 80 s",inhibits all of the NMDA current
same,Percentage inhibition of NMDA current,[3]; test substance 5 nM,0%
same,Percentage inhibition of NMDA current,"[3]; test substance 50 nM, mean of neurons",100%
same,Percentage inhibition of NMDA current,"[3]; test substance 500 nM, mean of neurons",100%
